Several values for one entry are separate records, joined by “and”; a condition that tells them apart may be missing. Identical values can stand only once. Counter-ions that a name gives are not always drawn.
System: Long Evans rats
Assay: Behavioral satiety sequence (BSS)
Type: in vivo, Long Evans rat
Source text: The Behavioural Satiety Sequence (BSS) is a technique used to evaluate physiological satiety. It is based on the expression of a sequence of behaviors including eating, grooming, locomotor activity, followed by resting, which are typically observed in rodents post-ingestion (Halford et al, 1998, Pharmacology Biochemistry and Behaviour. 61(2): 159-168). The BSS is a widely used model for determining the effects of novel pharmaceuticals on food intake and measures of satiety in rodents (Oliveira et al, 2011, Revista de Nutrição. 24(4) 619-628), and to discriminate the cause of reduced food intake following pharmacological manipulation. For example, treatments that may reduce food intake by non-specific mechanisms, such as immobility, malaise, and taste adulteration, will disrupt this sequence (Halford et al, 1998, Pharmacology Biochemistry and Behaviour. 61(2): 159-168).
Specifically, 12 male Long-Evans rats were food-deprived for 22 h with a 2 h feeding period each day. Rats were trained to consume daily food during the 2 h period over 25 days. The testing phase was initiated once the rats consistently consumed 16-18 g of food per day with ≤10% variance in amount of feed consumed. Feeding took place in designated individual boxes in a quiet room separate from the housing room. Continuous remote monitoring via video camera during feeding was used to assess the BSS. Food consumption was measured by weighing the total available food before and after the 2 h feeding window, correcting for spillage. Lorcaserin (1 mg/kg) was included as a reference control (Higgins et al, 2011, Neuropsychopharmacology. 37(5): 1177-1191). Subjects were tested using a repeated-measures, Latin square design with 2-3 days wash-out between treatment cycles.
On scheduled test days, animals were monitored remotely via video camera during the feeding access period. The occurrence of four mutually exclusive behaviors (eating/drinking, grooming, active, rest) were individually scored. Over the 2 h feeding period, behaviors were assessed every 30 seconds. Scores were compiled into 23 5 min timebins (timebin 24 was removed due to early removal of animals) and the frequency of each behavior within each timebin was calculated to determine a temporal frequency of each measure (Rodgers et al, 2010, Pharmacology Biochemistry and Behaviour. 97: 3-14). Percentage time was plotted for each behavioral sequence in each timebin to compare between treatment groups (Higgins et al, 2011, Neuropsychopharmacology. 37(5): 1177-1191).

[1] = 1 mg/kg, AVG of animals LT-1 to LT-12
[2] = 1 mg/kg, raw score per animal LT-1 to LT-12, hydrochloride
[3] = Lorcaserin 1 mg/kg s.c., AVG of the group
[4] = Lorcaserin 1 mg/kg s.c., raw score per animal, hydrochloride

SMILES: C[C@H]1CNCCc2ccc(Cl)cc21 [lorcaserin, Lorcaserin hydrochloride, reference compound]
- BSS scoring A (active), Time Bin 13 (60-65 TOTAL), AVG [1]: 0.20
- BSS scoring A (active), Time Bin 14 (65-70 TOTAL), AVG [1]: 0.20
- BSS scoring A (active), Time Bin 15 (70-75 TOTAL), AVG [1]: 0.12
- BSS scoring A (active), Time Bin 16 (75-80 TOTAL), AVG [1]: 0.06
- BSS scoring A (active), Time Bin 17 (80-85 TOTAL), AVG [1]: 0.07
- BSS scoring A (active), Time Bin 18 (85-90 TOTAL), AVG [1]: 0.13
- BSS scoring E (eating/drinking), Time Bin 13 (60-65 TOTAL), AVG [1]: 0.66
- BSS scoring E (eating/drinking), Time Bin 14 (65-70 TOTAL), AVG [1]: 0.65
- BSS scoring E (eating/drinking), Time Bin 15 (70-75 TOTAL), AVG [1]: 0.70
- BSS scoring E (eating/drinking), Time Bin 16 (75-80 TOTAL), AVG [1]: 0.83
- BSS scoring E (eating/drinking), Time Bin 17 (80-85 TOTAL), AVG [1]: 0.84
- BSS scoring E (eating/drinking), Time Bin 18 (85-90 TOTAL), AVG [1]: 0.73
- BSS scoring G (grooming), Time Bin 13 (60-65 TOTAL), AVG [1]: 0.07
- BSS scoring G (grooming), Time Bin 14 (65-70 TOTAL), AVG [1]: 0.04
- BSS scoring G (grooming), Time Bin 15 (70-75 TOTAL), AVG [1]: 0.12
- BSS scoring G (grooming), Time Bin 16 (75-80 TOTAL), AVG [1]: 0.08
- BSS scoring G (grooming), Time Bin 17 (80-85 TOTAL), AVG [1]: 0.04
- BSS scoring G (grooming), Time Bin 18 (85-90 TOTAL), AVG [1]: 0.10
- BSS scoring R (resting), Time Bin 13 (60-65 TOTAL), AVG [1]: 0.08
- BSS scoring R (resting), Time Bin 14 (65-70 TOTAL), AVG [1]: 0.11
- BSS scoring R (resting), Time Bin 15 (70-75 TOTAL), AVG [1]: 0.07
- BSS scoring R (resting), Time Bin 16 (75-80 TOTAL), AVG [1]: 0.03
- BSS scoring R (resting), Time Bin 17 (80-85 TOTAL), AVG [1]: 0.05
- BSS scoring R (resting), Time Bin 18 (85-90 TOTAL), AVG [1]: 0.03
- BSS scoring A (active), Time Bin 13 (60-65 TOTAL) [2]: 6 and 5 and 2 (2×) and 1 (2×) and 0 (4×) and 4 and 3
- BSS scoring A (active), Time Bin 14 (65-70 TOTAL) [2]: 4 (3×) and 2 (4×) and 0 and 1 (4×)
- BSS scoring A (active), Time Bin 15 (70-75 TOTAL) [2]: 0 (5×) and 1 (4×) and 4 (2×) and 2
- BSS scoring A (active), Time Bin 16 (75-80 TOTAL) [2]: 0 (9×) and 2 and 1 and 4
- BSS scoring A (active), Time Bin 17 (80-85 TOTAL) [2]: 0 (8×) and 2 (4×)
- BSS scoring A (active), Time Bin 18 (85-90 TOTAL) [2]: 4 and 0 (5×) and 1 (4×) and 6 and 2
- BSS scoring E (eating/drinking), Time Bin 13 (60-65 TOTAL) [2]: 4 and 3 and 6 and 5 (2×) and 7 (2×) and 8 (3×) and 9 (2×)
- BSS scoring E (eating/drinking), Time Bin 14 (65-70 TOTAL) [2]: 6 (2×) and 5 and 7 and 10 and 4 (2×) and 8 (3×) and 3 and 9
- BSS scoring E (eating/drinking), Time Bin 15 (70-75 TOTAL) [2]: 6 (3×) and 9 (4×) and 2 and 10 and 3 and 8 and 7
- BSS scoring E (eating/drinking), Time Bin 16 (75-80 TOTAL) [2]: 10 (7×) and 1 and 9 (2×) and 5 and 6
- BSS scoring E (eating/drinking), Time Bin 17 (80-85 TOTAL) [2]: 8 (3×) and 9 (3×) and 10 (3×) and 7 (2×) and 6
- BSS scoring E (eating/drinking), Time Bin 18 (85-90 TOTAL) [2]: 4 and 9 (2×) and 6 (2×) and 10 (3×) and 7 (3×) and 3
- BSS scoring G (grooming), Time Bin 13 (60-65 TOTAL) [2]: 0 (8×) and 2 (2×) and 3 and 1
- BSS scoring G (grooming), Time Bin 14 (65-70 TOTAL) [2]: 0 (8×) and 1 (3×) and 2
- BSS scoring G (grooming), Time Bin 15 (70-75 TOTAL) [2]: 0 (6×) and 3 and 1 (4×) and 7
- BSS scoring G (grooming), Time Bin 16 (75-80 TOTAL) [2]: 0 (10×) and 6 and 3
- BSS scoring G (grooming), Time Bin 17 (80-85 TOTAL) [2]: 0 (8×) and 1 (3×) and 2
- BSS scoring G (grooming), Time Bin 18 (85-90 TOTAL) [2]: 2 (3×) and 1 (3×) and 0 (5×) and 3
- BSS scoring R (resting), Time Bin 13 (60-65 TOTAL) [2]: 0 (7×) and 2 and 4 and 1 (3×)
- BSS scoring R (resting), Time Bin 14 (65-70 TOTAL) [2]: 0 (7×) and 1 (2×) and 4 (2×) and 3
- BSS scoring R (resting), Time Bin 15 (70-75 TOTAL) [2]: 4 and 1 (2×) and 0 (8×) and 2
- BSS scoring R (resting), Time Bin 16 (75-80 TOTAL) [2]: 0 (9×) and 1 (2×) and 2
- BSS scoring R (resting), Time Bin 17 (80-85 TOTAL) [2]: 2 (2×) and 1 (2×) and 0 (8×)
- BSS scoring R (resting), Time Bin 18 (85-90 TOTAL) [2]: 0 (9×) and 2 and 1 (2×)
- effect on the behavioral satiety sequence (BSS) (Compound I-19 0.1-3 mg/kg IP, lorcaserin 1 mg/kg SC): preserved the BSS at the 1 mg/kg dose
- BSS scoring A (active), Time Bin 7 (30-35 TOTAL), AVG [3]: 0.18
- BSS scoring A (active), Time Bin 8 (35-40 TOTAL), AVG [3]: 0.21
- BSS scoring A (active), Time Bin 9 (40-45 TOTAL), AVG [3]: 0.10
- BSS scoring A (active), Time Bin 10 (45-50 TOTAL), AVG [3]: 0.16
- BSS scoring A (active), Time Bin 11 (50-55 TOTAL), AVG [3]: 0.09
- BSS scoring A (active), Time Bin 12 (55-60 TOTAL), AVG [3]: 0.10
- BSS scoring E (eating/drinking), Time Bin 7 (30-35 TOTAL), AVG [3]: 0.68
- BSS scoring E (eating/drinking), Time Bin 8 (35-40 TOTAL), AVG [3]: 0.68
- BSS scoring E (eating/drinking), Time Bin 9 (40-45 TOTAL), AVG [3]: 0.74
- BSS scoring E (eating/drinking), Time Bin 10 (45-50 TOTAL), AVG [3]: 0.78
- BSS scoring E (eating/drinking), Time Bin 11 (50-55 TOTAL), AVG [3]: 0.75
- BSS scoring E (eating/drinking), Time Bin 12 (55-60 TOTAL), AVG [3]: 0.83
- BSS scoring G (grooming), Time Bin 7 (30-35 TOTAL), AVG [3]: 0.12
- BSS scoring G (grooming), Time Bin 8 (35-40 TOTAL), AVG [3]: 0.09
- BSS scoring G (grooming), Time Bin 9 (40-45 TOTAL), AVG [3]: 0.12
- BSS scoring G (grooming), Time Bin 10 (45-50 TOTAL), AVG [3]: 0.01
- BSS scoring G (grooming), Time Bin 11 (50-55 TOTAL), AVG [3]: 0.04
- BSS scoring G (grooming), Time Bin 12 (55-60 TOTAL), AVG [3]: 0.05
- BSS scoring R (resting), Time Bin 7 (30-35 TOTAL), AVG [3]: 0.03
- BSS scoring R (resting), Time Bin 8 (35-40 TOTAL), AVG [3]: 0.03
- BSS scoring R (resting), Time Bin 9 (40-45 TOTAL), AVG [3]: 0.04
- BSS scoring R (resting), Time Bin 10 (45-50 TOTAL), AVG [3]: 0.06
- BSS scoring R (resting), Time Bin 11 (50-55 TOTAL), AVG [3]: 0.12
- BSS scoring R (resting), Time Bin 12 (55-60 TOTAL), AVG [3]: 0.02
- BSS scoring A (active), Time Bin 7 (30-35 TOTAL) [4]: 0 (4×) and 3 and 1 (3×) and 4 and 2 (2×) and 7
- BSS scoring A (active), Time Bin 8 (35-40 TOTAL) [4]: 4 (2×) and 2 (2×) and 1 (4×) and 3 (3×) and 0
- BSS scoring A (active), Time Bin 9 (40-45 TOTAL) [4]: 0 (7×) and 2 and 1 (3×) and 7
- BSS scoring A (active), Time Bin 10 (45-50 TOTAL) [4]: 2 (2×) and 4 and 0 (7×) and 10 and 1
- BSS scoring A (active), Time Bin 11 (50-55 TOTAL) [4]: 0 (6×) and 2 (2×) and 1 (3×) and 4
- BSS scoring A (active), Time Bin 12 (55-60 TOTAL) [4]: 2 (2×) and 0 (6×) and 1 (3×) and 5
- BSS scoring E (eating/drinking), Time Bin 7 (30-35 TOTAL) [4]: 6 (4×) and 7 (2×) and 8 (2×) and 5 and 3 and 10 (2×)
- BSS scoring E (eating/drinking), Time Bin 8 (35-40 TOTAL) [4]: 5 (3×) and 7 and 9 and 8 (3×) and 4 and 6 (2×) and 10
- BSS scoring E (eating/drinking), Time Bin 9 (40-45 TOTAL) [4]: 10 (2×) and 7 (2×) and 9 (2×) and 8 (3×) and 2 and 6 and 5
- BSS scoring E (eating/drinking), Time Bin 10 (45-50 TOTAL) [4]: 8 (2×) and 6 (2×) and 10 (4×) and 0 and 9 (2×) and 7
- BSS scoring E (eating/drinking), Time Bin 11 (50-55 TOTAL) [4]: 10 (3×) and 7 (3×) and 1 and 8 (4×) and 6
- BSS scoring E (eating/drinking), Time Bin 12 (55-60 TOTAL) [4]: 6 and 7 (2×) and 9 (5×) and 10 (3×) and 5
- BSS scoring G (grooming), Time Bin 7 (30-35 TOTAL) [4]: 3 and 1 (3×) and 2 (4×) and 0 (4×)
- BSS scoring G (grooming), Time Bin 8 (35-40 TOTAL) [4]: 1 (7×) and 0 (3×) and 2 (2×)
- BSS scoring G (grooming), Time Bin 9 (40-45 TOTAL) [4]: 0 (4×) and 1 (5×) and 2 and 3 and 4
- BSS scoring G (grooming), Time Bin 10 (45-50 TOTAL) [4]: 0 (11×) and 1
- BSS scoring G (grooming), Time Bin 11 (50-55 TOTAL) [4]: 0 (7×) and 1 (5×)
- BSS scoring G (grooming), Time Bin 12 (55-60 TOTAL) [4]: 2 (2×) and 0 (8×) and 1 (2×)
- BSS scoring R (resting), Time Bin 7 (30-35 TOTAL) [4]: 1 (3×) and 0 (9×)
- BSS scoring R (resting), Time Bin 8 (35-40 TOTAL) [4]: 0 (9×) and 1 (3×)
- BSS scoring R (resting), Time Bin 9 (40-45 TOTAL) [4]: 0 (9×) and 1 (2×) and 3
- BSS scoring R (resting), Time Bin 10 (45-50 TOTAL) [4]: 0 (8×) and 4 and 1 (3×)
- BSS scoring R (resting), Time Bin 11 (50-55 TOTAL) [4]: 0 (7×) and 2 (3×) and 7 and 1

Source: patent publication US20250108038A1 (priority 2023, published 2025)
